Where two headings read alike, the source gives them in different places.
Experiments:
Assay type in all cases: in vivo
[1] = tested on: house flies, Musca domestica; test: Insecticidal activity against house flies, topical application on the notum, 24 h mortality; details: for LD50: Musca domestica
Protocol: Representative compounds of the N-alkoxysulfenylcarbamate esters of the invention were tested for insecticidal activity against house flies, Musca domestica. Stock 1% concentrated solutions of each of the test compounds were made in acetone, and such solutions diluted with acetone to a concentration of 0.001-0.1%. House flies were treated topically on the notum by 1 μl of each of the diluted acetone solutions and percent mortality was counted 24 hours after application. Insects were held at constant temperature of 60° F.
(§1) The term "LD50 " represents the dose needed to kill 50% of the test animals. In interpreting the values in the table above, the lower the value for LD50 for house flies, the greater the insecticidal potency or toxicity of that particular compound. On the other hand, the higher the value of LD50 for mice, the lower the mammalian toxicity or the greater is the mammalian safety of such compound.

[2] = Mammalian toxicity, oral, Swiss white mice; details: mouse, in vivo, po
Protocol: (§2) Mammalian toxicity was determined against Swiss white mice. The test compound was applied orally using corn oil as the carrier. Results are given as LD50 in mg of compound per kg body weight.
as §1

Swiss white mice = test: Mammalian toxicity, oral, Swiss white mice; details: mice / mammals; comparison with parent carbamate or purified compound
Protocol: as §2, §1

[3] = Table 2, polysulfide derivatives, oral in corn oil, read-out: Mice Toxicity LD50
[4] = Table 1, oral in corn oil, samples contained polysulfide derivative in the amounts indicated, read-out: Mice LD50

| Structure (SMILES) | LD50 ([1]; read-out: House flies LD50) | LD50 [2, 4] | other results |
| --- | --- | --- | --- |
| CCCCCCOSN(C)C(=O)Oc1cccc2c1OC(C)(C)C2 [CH2 (CH2)4 CH3, n = 1, 2,3-dihydro-2,2-dimethyl-7-benzofuranyl(hexyloxysulfenyl)(methyl)carbamate] | – | – | House flies LD50 ([1]; Table 2, polysulfide derivatives): 9.3 µg/g; LD50 [2, 3]: 37 mg/kg |
| CCCCCCOSSN(C)C(=O)Oc1cccc2c1OC(C)(C)C2 [CH2 (CH2)4 CH3, n = 2, disulfide derivative of 2,3-dihydro-2,2-dimethyl-7-benzofuranyl(hexyloxysulfenyl)(methyl)carbamate] | 13 mg/kg | – | LD50 [2, 3]: 72 mg/kg |
| COSSN(C)C(=O)Oc1cccc2c1OC(C)(C)C2 [CH3, n = 2, disulfide derivative of 2,3-dihydro-2,2-dimethyl-7-benzofuranyl(methoxysulfenyl)(methyl)carbamate] | 20.5 mg/kg | – | LD50 [2, 3]: 48 mg/kg |
| CNC(=O)Oc1cccc2c1OC(C)(C)C2 [Carbofuran, 2,3-dihydro-2,2-dimethyl-7-benzofuranyl methylcarbamate, reference compound] | 11 mg/kg | – | LD50 ([1]; read-out: LD50 value for house flies): ~11 mg/kg; LD50 [2, 3]: 11 to 19 mg/kg; LD50 ([2]; read-out: LD50 for mice): 11 mg/kg |
| COSN(C)C(=O)Oc1cccc2c1OC(C)(C)C2 [Example 1, 2,3-dihydro-2,2-dimethyl-7-benzofuranyl(methoxysulfenyl)(methyl)carbamate] | 15.5 mg/kg | 43 mg/kg | LD50 [2, 3]: 43 mg/kg |
| CCOSN(C)C(=O)Oc1cccc2c1OC(C)(C)C2 [Example 2, 2,3-dihydro-2,2-dimethyl-7-benzofuranyl(ethoxysulfenyl)(methyl)carbamate] | 15.8 mg/kg | 46 mg/kg | – |
| CC(C)OSN(C)C(=O)Oc1cccc2c1OC(C)(C)C2 [Example 3, 2,3-dihydro-2,2-dimethyl-7-benzofuranyl(isopropoxysulfenyl)(methyl)carbamate] | 31 mg/kg | 55 to 70 mg/kg | – |
| CCCCCCOSN(C)C(=O)Oc1cccc2c1OC(C)(C)C2 [Example 4, 2,3-dihydro-2,2-dimethyl-7-benzofuranyl(hexyloxysulfenyl)(methyl)carbamate] | 9.3 mg/kg | 88 mg/kg | – |
| CN(SOC1CCCCC1)C(=O)Oc1cccc2c1OC(C)(C)C2 [Example 5, 2,3-dihydro-2,2-dimethyl-7-benzofuranyl(cyclohexyloxysulfenyl)(methyl)carbamate] | 21.5 mg/kg | 69 mg/kg | – |
| CN(SOCc1ccccc1)C(=O)Oc1cccc2c1OC(C)(C)C2 [Example 6, 2,3-dihydro-2,2-dimethyl-7-benzofuranyl(benzyloxysulfenyl)(methyl)carbamate] | 7.5 mg/kg | 59 mg/kg | – |
| CCCCCCCCCCCCOSN(C)C(=O)Oc1cccc2c1OC(C)(C)C2 [Example 7, 2,3-dihydro-2,2-dimethyl-7-benzofuranyl(dodecyloxysulfenyl)(methyl)carbamate] | 21 mg/kg | 340 mg/kg | – |
| CCCCOSN(C)C(=O)Oc1ccccc1OC(C)C [Example 8, 2-isopropoxyphenyl(butoxysulfenyl)(methyl)] | 46 mg/kg | > 1000 mg/kg | – |
| CC(C)Oc1ccccc1OC(=O)N(C)SOCc1ccccc1 [Example 9, 2-isopropoxyphenyl(benzyloxysulfenyl)(methyl)carbamate] | 30 mg/kg | > 1000 mg/kg | LD50 ([2]; read-out: LD50 for mice): > 1000 mg/kg; mammalian toxicity / safety (in words) (Swiss white mice): much safer to mammals |
| CCCCOSN(C)C(=O)Oc1cccc(C(C)C)c1 [Example 10, 3-isopropylphenyl(butoxysulfenyl)(methyl)carbamate] | 120 mg/kg | 130 mg/kg | – |
| CC(C)c1cccc(OC(=O)N(C)SOCc2ccccc2)c1 [Example 11, 3-isopropylphenyl(benzyloxysulfenyl)(methyl)carbamate] | 175 mg/kg | 210 mg/kg | – |
| CCC(CC)OSN(C)C(=O)Oc1cccc2c1OC(C)(C)C2 [Example 12, 2,3-Dihydro-2,2-dimethyl-7-benzofuranyl (1-ethylpropoxysulfeny)(methyl)carbamate] | 21 mg/kg | 63 mg/kg | – |
| CN(SOC(C)(C)C)C(=O)Oc1cccc2c1OC(C)(C)C2 [Example 13, 2,3-Dihydro-2,2-dimethyl-7-benzofuranyl (tert-butoxysulfenyl)(methyl)carbamate] | 20 to 30 mg/kg | 75 mg/kg | – |
| CCCCCCCCOSN(C)C(=O)Oc1cccc2c1OC(C)(C)C2 [Example 14, 2,3-Dihydro-2,2-dimethyl-7-benzofuranyl (methyl)-(octyloxysulfenyl)carbamate] | 13 mg/kg | 100 mg/kg | – |
| CCCCCCCCCCOSN(C)C(=O)Oc1cccc2c1OC(C)(C)C2 [Example 15, 2,3-Dihydro-2,2-dimethyl-7-benzofuranyl (decyloxysulfenyl)(methyl)carbamate] | 7.3 mg/kg | 135 mg/kg | – |
| COc1ccc(COSN(C)C(=O)Oc2cccc3c2OC(C)(C)C3)cc1 [Example 16, 2,3-Dihydro-2,2-dimethyl-7-benzofuranyl (P--methoxybenzyloxysulfenyl)(methyl)carbamate] | 13.8 mg/kg | 108 mg/kg | – |
| CN(SOCc1ccc(C(C)(C)C)cc1)C(=O)Oc1cccc2c1OC(C)(C)C2 [Example 17, 2,3-Dihydro-2,2-dimethyl-7-benzofuranyl (P--tert-butylbenzyloxysulfenyl)(methyl)carbamate] | 15.5 mg/kg | 98 mg/kg | – |
| CCCCCCCCCCCCCCCCCCOSN(C)C(=O)Oc1cccc2c1OC(C)(C)C2 [Example 18, 2,3-Dihydro-2,2-dimethyl-7-benzofuranyl (methyl)(octadecyloxysulfenyl)carbamate] | 75 mg/kg | ≥ 1000 mg/kg | – |
| CNC(=O)Oc1ccccc1OC(C)C [propoxur, 2-isopropoxyphenyl methylcarbamate, reference compound] | – | – | LD50 ([2]; read-out: LD50 for mice): 62 mg/kg |
